{
  "source": "patent US11298333B1",
  "about": "“Methods of reducing the risk of cardiovascular events in a subject” (Amarin Pharmaceuticals Ireland Limited, priority 2018, dated 2022)",
  "key": {"[1]": {"system": "hypertriglyceridemic patients with cardiovascular disease or at high risk for cardiovascular disease", "type": "in vivo", "details": "for Key secondary composite endpoint: relative risk reduction vs placebo / Primary composite endpoint: relative risk reduction vs placebo: over 5 years", "from_the_text": "The following study, also referred to as the REDUCE-IT clinical trial, was a large cardiovascular (CV) outcome trial designed to assess CV risk reduction benefit of AMR101 treatment (commercially known as VASCEPA®) versus placebo on the 5-point primary composite endpoint: CV death, non-fatal stroke, non-fatal myocardial infarction (MI), coronary revascularizations, or unstable angina requiring hospitalization.\nA multi-center, prospective, randomized, double-blind, placebo-controlled, parallel-group study was performed to evaluate the effect of AMR101 (4 g per day) on cardiovascular health and mortality in hypertriglyceridemic patients with cardiovascular disease or at high risk for cardiovascular disease. The intended expanded indication of the study was treatment with AMR101 as an add-on to statin therapy to reduce the risk of cardiovascular events in patients with clinical cardiovascular disease or with multiple risk factors for cardiovascular disease.\nThe primary objective of this study was, in patients at LDL-C goal while on statin therapy, with established cardiovascular disease (CVD) or at high risk for CVD, and hypertriglyceridemia (e.g., fasting triglycerides (TG) ≥200 mg/dL and <500 mg/dL), to evaluate the effect of AMR101 4 g daily on time from randomization to first occurrence of any component of the composite of the following major CV events: CV death; nonfatal MI; (including silent MI; electrocardiograms (ECGs) were performed annually for the detection of silent MIs); nonfatal stroke; coronary revascularization; and unstable angina determined to be caused by myocardial ischemia by invasive/non-invasive testing and requiring emergent hospitalization.\nThe key secondary objective of this study was to evaluate the effect of AMR101 4 g daily on the time from randomization to the first occurrence of the composite of following major CV events: CV death, nonfatal MI (including silent MI), and nonfatal stroke.\nOther secondary objectives for this study were to evaluate the effect of therapy on time from randomization to the first occurrence of the following individual or composite endpoints: composite of CV death or nonfatal MI (including silent MI); fatal or nonfatal MI (including silent MI); non-elective coronary revascularization represented as the composite of emergent or urgent classifications; CV death; unstable angina determined to be caused by myocardial ischemia by invasive/non-invasive testing and requiring emergent hospitalization; fatal or nonfatal stroke; composite of total mortality, nonfatal MI (including silent MI), or nonfatal stroke; and total mortality.\nPrimary Efficacy Endpoint: The primary efficacy endpoint was time from randomization to the first occurrence of the composite of the following clinical events: CV death; nonfatal MI (including silent MI; ECGs were performed annually for the detection of silent MIs); nonfatal stroke; coronary revascularization; and unstable angina determined to be caused by myocardial ischemia by invasive/non-invasive testing and requiring emergent hospitalization. The first occurrence of any of these major adverse vascular events during the follow-up period of the study were included in the incidence.\nSecondary Efficacy Endpoints: The key secondary efficacy endpoint was the time from randomization to the first occurrence of the composite of CV death, nonfatal MI (including silent MI), or nonfatal stroke. […]"}, "[2]": {"system": "hypertriglyceridemic patients with cardiovascular disease or at high risk for cardiovascular disease", "details": "in vivo", "description": "Specification of Variables and Procedures: Safety assessments included adverse events, clinical laboratory measurements (chemistry, hematology), 12-lead ECGs, vital signs (systolic and diastolic blood pressure, heart rate, respiratory rate, and body temperature), weight, waist circumference, and physical examinations as per Study Procedures in Table 1. […] All laboratory test results were evaluated by the investigator as to their clinical significance. Any observations at physical examinations or laboratory values considered by the investigator to be clinically significant were considered an adverse event.\nAn adverse event can therefore be any unfavorable and/or unintended sign (including an abnormal laboratory finding), symptom, or disease temporally associated with the use of an investigational medication product, whether or not related to the investigational medication product. All adverse events, including observed or volunteered problems, complaints, or symptoms, were recorded on the appropriate CRF. Each adverse event was evaluated for duration, intensity, and causal relationship with the study medication or other factors.\nSerious Adverse Events: A serious adverse event (SAE) is defined as an adverse event that meets any of the following criteria: • Results in death; • Is life-threatening—The term “life-threatening” in the definition of “serious” refers to an event in which the patient was at risk of death at the time of the event. […] Important medical events that may not result in death, be life threatening, or require hospitalization were considered an SAE when, based upon appropriate medical judgment, they may have jeopardized the patient and may have required medical or surgical intervention to prevent one of the outcomes listed above.\nAdverse Events of Special Interest: Bleeding-related adverse events, glucose control (fasting blood glucose and HbA1c), and indicators of hepatic disorders (e.g., ALT or AST increases >3×ULN, total bilirubin increases of ≥2×ULN) were summarized separately and compared between treatment groups.\nAnalysis of Safety: All analyses of safety were conducted on the safety population, which was defined as all randomized patients. The safety assessment was based on the frequency of adverse events, physical exams, vital signs and safety laboratory tests. AEs with new onset during the study between the initiation of study drug and 30 days after the last dose of study drug for each patient was considered treatment-emergent (TEAEs). This included any AE with onset prior to initiation of study drug and increased severity after the treatment initiation.\nThis included overall incidence rates (regardless of severity and relationship to study drug), and incidence rates for moderate or severe adverse events. A summary of SAEs and adverse events leading to early discontinuation (for ≥30 days) were presented through data listings. Patients who restarted study drug were included in the summary of AEs leading to discontinuation. Safety laboratory tests and vital signs were summarized by post-treatment change from baseline for each of the parameters using descriptive statistics by treatment group. Those patients with significant laboratory abnormalities were identified in data listings. Additional safety parameters were summarized in data listings."}, "[3]": {"details": "4 g/day, ITT, hierarchical secondary endpoint"}, "[4]": {"details": "4 g/day, ITT, median follow-up 4.9 years"}, "[5]": {"details": "4 g/day, ITT, time to first event, median follow-up 4.9 years"}, "[6]": {"details": "4 g/day, ITT, time to first event"}, "[7]": {"details": "4 g/day, ITT, time to first event, listed as AMR101"}},
  "note": "Like-named read-outs stand apart in the source and are kept apart here.",
  "data": [
    {"smiles": "CC/C=C\\C/C=C\\C/C=C\\C/C=C\\C/C=C\\CCCC(=O)OCC", "note": "[Icosapent Ethyl, eicosapentaenoic acid ethyl ester]", "values": [
      {"measurement": "Cardiac arrest: reduction vs placebo", "setting": "[1]; 4 g/day", "value": 48, "unit": "%"},
      {"measurement": "Reduction in heart attack vs placebo", "setting": "[1]; 4 g/day", "value": 31, "unit": "%"},
      {"measurement": "Sudden death: reduction vs placebo", "setting": "[1]; 4 g/day", "value": 31, "unit": "%"},
      {"measurement": "Cardiovascular death: relative risk reduction vs placebo", "setting": "[1]; 4 g/day, ITT", "value": 20, "unit": "%"},
      {"measurement": "Composite of cardiovascular death or nonfatal myocardial infarction: RRR", "setting": "[1]; 4 g/day, ITT", "value": 25, "unit": "%"},
      {"measurement": "Composite of total mortality, nonfatal myocardial infarction, or nonfatal stroke: RRR", "setting": "[1]; 4 g/day, ITT", "value": 23, "unit": "%"},
      {"measurement": "Fatal or nonfatal myocardial infarction: RRR", "setting": "[1]; 4 g/day, ITT", "value": 31, "unit": "%"},
      {"measurement": "Fatal or nonfatal stroke: RRR", "setting": "[1]; 4 g/day, ITT", "value": 28, "unit": "%"},
      {"measurement": "Total mortality: HR vs placebo", "setting": "[1]; 4 g/day, ITT", "value": 0.87},
      {"measurement": "Total mortality: relative risk reduction vs placebo", "setting": "[1]; 4 g/day, ITT", "value": 13, "unit": "%"},
      {"measurement": "Cardiovascular death: HR vs placebo", "setting": "[1]; [3]", "value": 0.80},
      {"measurement": "Cardiovascular death: patients with event", "setting": "[1]; [3]", "value": 4.3, "unit": "%"},
      {"measurement": "Total mortality (death from any cause): patients with event", "setting": "[1]; 4 g/day, ITT, last hierarchical secondary endpoint", "value": 6.7, "unit": "%"},
      {"measurement": "Key secondary composite endpoint: absolute risk reduction vs placebo", "setting": "[1]; [4]", "value": 3.6, "unit": "%"},
      {"measurement": "Primary composite endpoint: absolute risk reduction vs placebo", "setting": "[1]; [4]", "value": 4.8, "unit": "%"},
      {"measurement": "Key secondary composite endpoint (CV death, nonfatal MI, or nonfatal stroke): patients with event", "setting": "[1]; [5]", "value": 11.2, "unit": "%"},
      {"measurement": "Primary composite endpoint (CV death, nonfatal MI, nonfatal stroke, coronary revascularization, or unstable angina): patients with event", "setting": "[1]; [5]", "value": 17.2, "unit": "%"},
      {"measurement": "Key secondary composite endpoint: relative risk reduction vs placebo", "setting": "[1]; [6]", "value": 26, "unit": "%"},
      {"measurement": "Primary composite endpoint: relative risk reduction vs placebo", "setting": "[1]; [6]", "value": 25, "unit": "%"},
      {"measurement": "Key secondary composite endpoint: relative risk reduction vs placebo", "setting": "[1]; [7]", "value": 26, "unit": "%"},
      {"measurement": "Primary composite endpoint: relative risk reduction vs placebo", "setting": "[1]; [7]", "value": 25, "unit": "%"},
      {"measurement": "Adjudicated tertiary endpoint of heart failure: patients with event", "setting": "[1]; 4 g/day, no significant difference vs placebo", "value": 4.1, "unit": "%"},
      {"measurement": "Primary endpoint: risk reduction in post hoc analysis excluding patients with diarrhea", "setting": "[1]; post hoc", "value": 25, "unit": "%"},
      {"measurement": "Adjudicated sudden cardiac death: patients with event", "setting": "[1]; tertiary endpoint, 4 g/day, ITT", "value": 1.5, "unit": "%"},
      {"measurement": "Cardiac Arrest: HR (95% CI)", "setting": "[1]; tertiary endpoint, vs placebo", "value": "0.52 (0.31, 0.86)"},
      {"measurement": "Coronary Revascularization: HR (95% CI)", "setting": "[1]; tertiary endpoint, vs placebo", "value": "0.66 (0.58, 0.76)"},
      {"measurement": "Elective Revascularization: HR (95% CI)", "setting": "[1]; tertiary endpoint, vs placebo", "value": "0.68 (0.57, 0.82)"},
      {"measurement": "Emergent Revascularization: HR (95% CI)", "setting": "[1]; tertiary endpoint, vs placebo", "value": "0.62 (0.42, 0.92)"},
      {"measurement": "Ischemic Stroke: HR (95% CI)", "setting": "[1]; tertiary endpoint, vs placebo", "value": "0.64 (0.49, 0.85)"},
      {"measurement": "New Heart Failure Requiring Hospitalization: HR (95% CI)", "setting": "[1]; tertiary endpoint, vs placebo", "value": "0.97 (0.77, 1.22)"},
      {"measurement": "New Heart Failure: HR (95% CI)", "setting": "[1]; tertiary endpoint, vs placebo", "value": "0.95 (0.77, 1.17)"},
      {"measurement": "Primary Endpoint in Patients with Diabetes at Baseline: HR (95% CI)", "setting": "[1]; tertiary endpoint, vs placebo", "value": "0.77 (0.68, 0.87)"},
      {"measurement": "Salvage Revascularization: HR (95% CI)", "setting": "[1]; tertiary endpoint, vs placebo", "value": "0.00 (0.00, —)"},
      {"measurement": "Urgent Revascularization: HR (95% CI)", "setting": "[1]; tertiary endpoint, vs placebo", "value": "0.66 (0.54, 0.79)"},
      {"measurement": "TEAE Upper respiratory tract infection", "setting": "[2]; human", "value": "312 (7.6%) n (%)"},
      {"measurement": "TEAE Urinary tract infection", "setting": "[2]; human", "value": "253 (6.2%) n (%)"},
      {"measurement": "Fatal bleeding events", "setting": "[2]", "value": "no fatal bleeding events"}
    ]}
  ]
}
